Like-named read-outs stand apart in the source and are kept apart here.
Legend:
Assay type in all cases: in vivo
[1] = test system: Myzus persicae (Green Peach Aphid); test: Myzus persicae (Green Peach Aphid): feeding/contact activity; settings: foliar, 144 h
Method: Myzus persicae (Green Peach Aphid): Feeding/Contact Activity
Sunflower leaf discs were placed onto agar in a 24-well microtiter plate and sprayed with aqueous test solutions prepared from 10,000 ppm DMSO stock solutions. After drying, the leaf discs were infested with an aphid population of mixed ages. The samples were assessed for mortality 6 days after infestation.

[2] = test system: Tetranychus urticae (Two-Spotted Spider Mite); test: Tetranychus urticae (Two-Spotted Spider Mite): feeding/contact activity; settings: foliar, 192 h, read-out: mortality on mixed population (mobile stages)
Method: Tetranychus urticae (Two-Spotted Spider Mite): Feeding/Contact Activity
Bean leaf discs on agar in 24-well microtiter plates were sprayed with aqueous test solutions prepared from 10′000 ppm DMSO stock solutions. After drying the leaf discs were infested with a mite population of mixed ages. The samples were assessed for mortality on mixed population (mobile stages) 8 days after infestation.

[3] = test system: Plutella xylostella (Diamond Back Moth); test: Plutella xylostella (Diamond Back Moth): feeding/contact activity; settings: 120 h
Method: Plutella xylostella (Diamond Back Moth): Feeding/Contact Activity
24-well microtiter plates with artificial diet were treated with aqueous test solutions prepared from 10′000 ppm DMSO stock solutions by pipetting. After drying, the plates were infested with L2 larvae (10 to 15 per well). The samples were assessed for mortality 5 days after infestation.

[4] = test system: Euschistus heros (Neotropical Brown Stink Bug); test: Euschistus heros (Neotropical Brown Stink Bug): feeding/contact activity; settings: 120 h
Method: Euschistus heros (Neotropical Brown Stink Bug): Feeding/Contact Activity
Soybean leaves on agar in 24-well microtiter plates were sprayed with aqueous test solutions prepared from 10,000 ppm DMSO stock solutions. After drying the leaves were infested with N2 nymphs. The samples were assessed for mortality 5 days after infestation.

[5] = test system: Thrips tabaci (Onion Thrips); test: Thrips tabaci (Onion Thrips): feeding/contact activity; settings: foliar, 144 h
Method: Thrips tabaci (Onion Thrips): Feeding/Contact Activity
Sunflower leaf discs were placed on agar in 24-well microtiter plates and sprayed with aqueous test solutions prepared from 10′000 ppm DMSO stock solutions. After drying the leaf discs were infested with a thrips population of mixed ages. The samples were assessed for mortality 6 days after infestation.

[6] = test system: Diabrotica balteata (Corn root worm); test: Diabrotica balteata (Corn root worm) mortality test on sprayed maize sprouts; settings: 96 h
Method: Diabrotica balteata (Corn root worm):
Maize sprouts placed onto an agar layer in 24-well microtiter plates were treated with aqueous test solutions prepared from 10′000 ppm DMSO stock solutions by spraying. After drying, the plates were infested with L2 larvae (6 to 10 per well). The samples were assessed for mortality 4 days after infestation.

[7] = test system: Spodoptera littoralis (Egyptian Cotton Leaf Worm); test: Spodoptera littoralis (Egyptian Cotton Leaf Worm): feeding/contact activity; settings: foliar, 72 h
Method: Spodoptera littoralis (Egyptian Cotton Leaf Worm): Feeding/Contact Activity
Cotton leaf discs were placed onto agar in 24-well microtiter plates and sprayed with aqueous test solutions prepared from 10′000 ppm DMSO stock solutions. After drying the leaf discs were infested with five L1 larvae. The samples were assessed for mortality 3 days after infestation.

[8] = application rate 200 ppm, sunflower leaf discs sprayed, aphid population of mixed ages, assessed 6 days after infestation, read-out: mortality
[9] = application rate 200 ppm, bean leaf discs sprayed, mite population of mixed ages, assessed 8 days after infestation
[10] = application rate 200 ppm, artificial diet treated by pipetting, L2 larvae, assessed 5 days after infestation, read-out: mortality
[11] = application rate 200 ppm, soybean leaves sprayed, N2 nymphs, assessed 5 days after infestation, read-out: mortality
[12] = application rate 200 ppm, sunflower leaf discs sprayed, thrips population of mixed ages, assessed 6 days after infestation, read-out: mortality
[13] = application rate 200 ppm, maize sprouts sprayed, L2 larvae, assessed 4 days after infestation, read-out: mortality
[14] = application rate 200 ppm, cotton leaf discs sprayed, L1 larvae, assessed 3 days after infestation, read-out: mortality

Measured: mortality at 200 ppm

Cn1nc(C(F)(F)C(F)(F)F)c(OC(F)F)c1-n1cc(-c2cnc(Cl)c(C(=O)N(CC#N)C3(C#N)CC3)c2)cn1 [Compound 15, 2-chloro-N-(1-cyanocyclopropyl)-N-(cyanomethyl)-5-[1-[4-(difluoromethoxy)-2-methyl-5-(1,1,2,2,2-pentafluoroethyl)pyrazol-3-yl]pyrazol-4-yl]pyridine-3-carboxamide]
≥ 80%: [1]; [8] | [2]; [9] | [3]; [10] | [4]; [11] | [5]; [12] | [6]; [13] | [7]; [14]

CCOC(=O)N(C(=O)c1cc(-c2cnn(-c3c(OC(F)F)c(C(F)(F)C(F)(F)F)nn3C)c2)cnc1Cl)C1(C#N)CC1 [Compound 16, ethyl N-[2-chloro-5-[1-[4-(difluoromethoxy)-2-methyl-5-(1,1,2,2,2-pentafluoroethyl)pyrazol-3-yl]pyrazol-4-yl]pyridine-3-carbonyl]-N-(1-cyanocyclopropyl)carbamate]
≥ 80%: [1] | [2] | [3] | [4]; in Glycine max | [5] | [6] | [7]

COC(=O)N(C(=O)c1cc(-c2cnn(-c3c(OC(F)F)c(C(F)(F)C(F)(F)F)nn3C)c2)cnc1Cl)C1(C#N)CC1 [Compound 17, methyl N-[2-chloro-5-[1-[4-(difluoromethoxy)-2-methyl-5-(1,1,2,2,2-pentafluoroethyl)pyrazol-3-yl]pyrazol-4-yl]pyridine-3-carbonyl]-N-(1-cyanocyclopropyl)carbamate]
≥ 80%: [1] | [2] | [3] | [4]; in Glycine max | [5] | [6] | [7]

COCN(C(=O)c1cc(-c2cnn(-c3c(OC(F)F)c(C(F)(F)C(F)(F)F)nn3C)c2)cnc1Cl)C1(C#N)CC1 [Compound 18, 2-chloro-N-(1-cyanocyclopropyl)-5-[1-[4-(difluoromethoxy)-2-methyl-5-(1,1,2,2,2-pentafluoroethyl)pyrazol-3-yl]pyrazol-4-yl]-N-(methoxymethyl)pyridine-3-carboxamide]
≥ 80%: [1]; [8] | [2]; [9] | [3]; [10] | [4]; [11] | [5]; [12] | [6]; [13] | [7]; [14]

Cn1nc(C(F)(F)C(F)(F)F)c(OC(F)F)c1-n1cc(-c2cnc(Cl)c(C(=O)N(C(=O)C3CC3)C3(C#N)CC3)c2)cn1 [Compound 19, 2-chloro-N-(1-cyanocyclopropyl)-N-(cyclopropanecarbonyl)-5-[1-[4-(difluoromethoxy)-2-methyl-5-(1,1,2,2,2-pentafluoroethyl)pyrazol-3-yl]pyrazol-4-yl]pyridine-3-carboxamide]
≥ 80%: [1]; [8] | [2]; [9] | [3]; [10] | [4]; [11] | [5]; [12] | [6]; [13] | [7]; [14]

CCC(=O)N(C(=O)c1cc(-c2cnn(-c3c(OC(F)F)c(C(F)(F)C(F)(F)F)nn3C)c2)cnc1Cl)C1(C#N)CC1 [Compound 20, 2-chloro-N-(1-cyanocyclopropyl)-5-[1-[4-(difluoromethoxy)-2-methyl-5-(1,1,2,2,2-pentafluoroethyl)pyrazol-3-yl]pyrazol-4-yl]-N-propanoyl-pyridine-3-carboxamide]
≥ 80%: [1]; [8] | [2]; [9] | [3]; [10] | [4]; [11] | [5]; [12] | [6]; [13] | [7]; [14]

C#CCN(C(=O)c1cc(-c2cnn(-c3c(OC(F)F)c(C(F)(F)C(F)(F)F)nn3C)c2)cnc1Cl)C1(C#N)CC1 [Compound 21, 2-chloro-N-(1-cyanocyclopropyl)-5-[1-[4-(difluoromethoxy)-2-methyl-5-(1,1,2,2,2-pentafluoroethyl)pyrazol-3-yl]pyrazol-4-yl]-N-prop-2-ynyl-pyridine-3-carboxamide]
≥ 80%: [1]; [8] | [2]; [9] | [3]; [10] | [4]; [11] | [5]; [12] | [6]; [13] | [7]; [14]

CC(=O)N(C(=O)c1cc(-c2cnn(-c3c(OC(F)F)c(C(F)(F)C(F)(F)F)nn3C)c2)cnc1Cl)C1(C#N)CC1 [Compound 22, N-acetyl-2-chloro-N-(1-cyanocyclopropyl)-5-[1-[4-(difluoromethoxy)-2-methyl-5-(1,1,2,2,2-pentafluoroethyl)pyrazol-3-yl]pyrazol-4-yl]pyridine-3-carboxamide]
≥ 80%: [1]; [8] | [2]; [9] | [3]; [10] | [4]; [11] | [5]; [12] | [6]; [13] | [7]; [14]

Reference: patent US11252963B2, “Pesticidally active pyrazole derivatives” (SYNGENTA PARTICIPATIONS AG, priority 2017, dated 2022)
